Reference: publication PMC5603853, “Physicochemical, Stress Degradation Evaluation and Pharmacokinetic Study of AZGH102, a New Synthesized COX2 Inhibitors after I.V. and Oral Administration in Male and Female Rats” (Iranian Journal of Pharmaceutical Research : IJPR, 2017)
Converted amounts (≈) assume the structure as drawn. Read-outs that look alike come from different tables or passages of the source.

Tests used:
[1] = Octanol/water partition coefficient (OECD Guideline No. 107); assay type: physicochemical; settings: 3 replications, read-out: log P (logarithm of octanol/water partition coefficient)
Protocol: (§1) Melting point was determined with an Electrothermal 9200 apparatus (UK). Moreover, aqueous solubility and octanol/water partition coefficient of the synthesized derivative was determined according to Organisation for Economic Co-operation and Development (OECD) Guideline for Testing of Chemicals, No.105 and No. 107, respectively ([6]-[8]).

[2] = Pharmacokinetic study after oral administration; assay type: in vivo; settings: for Cl / Ka / Vd / α (distribution rate constant) / AUC(0-inf) / Cmax / Tmax / half-life / k el: oral 20 mg/Kg; for bioavailability / AUC(0-inf) / Cmax / Tmax / half-life / k el: rat, plasma; for bioavailability: oral 20 mg/Kg vs IV 10 mg/Kg, read-out: F (absolute bioavailability); for half-life: read-out: t1/2 β (converted); for k el: read-out: β (elimination rate constant) (converted)
Protocol: (§2) Male and female Wistar rats weighting 250 ± 10 g were used. They were housed in animal center of author’s institute. Each rat was housed in a cage which was kept at 25 ± 1 °C temperature and controlled humidity with 12 h light/dark cycle. Animals were fasted overnight before the experiment and had free access to water. The study protocol was approved by the local ethics committee for animal experiments of Shahid Beheshti University of Medical Sciences (Tehran, Iran).
(§3) The rats (12 male and 12 female) were randomly divided into four groups (6 rats/group) and assigned to receive AZGH 102 solution via intravenous (IV) and/or oral administration. The administered doses in both male and female groups for IV and oral studies were 10 mg/Kg and 20 mg/Kg, respectively. Blood samples were collected from the tail vein immediately prior to (blank sample) and at 0.08, 0.25, 0.5, 1, 2, 4, 6, 8, 10, 21 and 22 h after drug administration into heparinized micro-tubes. Blood samples were centrifuged at 1000 g for 10 min and the separated plasma samples were kept at – 20 °C until analysis.
(§4) Two-compartmental model was selected and pharmacokinetic analyses were performed using WinNonlin software (Pharsight Corporation, Mountain View, USA, Version 3.2). The following pharmacokinetic parameters were estimated: terminal elimination half-life (t1/2), area under the plasma concentration versus time curve from zero to the infinity (AUC 0-∞), distribution and elimination rate constants (α, β), y intercepts (A, B), volume of distribution (Vd), and total body clearance (CL). The peak plasma concentration (Cmax) and the time to reach Cmax (Tmax) for oral dose were obtained directly from the observed individual plasma concentration-time data.

[3] = Aqueous solubility (OECD Guideline No. 105); assay type: physicochemical; settings: thermodynamic from solid; water; 3 replications
Protocol: as §1

COX-2 = settings: in comparison with celecoxib; cited from earlier work
[4] = Forced degradation stability study (ICH guideline); assay type: physicochemical; parameters: Forced tests results, Mean ±SD: unit not given here; settings: for Forced tests results, Mean ±SD: n=3
Protocol: The stability study was conducted according to forced degradation protocol ICH guideline for new drug substance ([9]-[11]). The study evaluated the stability of AZGH 102 at acidic, basic, and neutral medium. Moreover, the effect of oxidative condition (H2O2, 3 and 30%), thermal degradation at solid state and photolysis on the stability of AZGH 102 was evaluated.

[5] = Pharmacokinetic study after intravenous administration; assay type: in vivo; settings: intravenous 10 mg/Kg; for AUC(0-inf) / C0 / Vd / clearance / half-life / k el: rat, plasma; for half-life: read-out: t1/2 β (converted); for k el: read-out: β (elimination rate constant) (converted)
Protocol: as §2, §3, §4

In the case of `CS(=O)(=O)c1ccc(-c2cc(C(=O)O)c3cccc(C(=O)c4ccccc4)c3n2)cc1` [AZGH 102, 8-benzoyl-2-(4-(methylsulfonyl)phenyl)quinoline-4-carboxylic acid], the logP [1] is reported as 3.75 ± 0.001, the Cl ([2]; female Wistar rats) is reported as 29.15 ± 0.47 mL/h and the Ka ([2]; female Wistar rats) is reported as 1.26 ± 0.34 h⁻¹. For the same compound, the Vd ([2]; female Wistar rats) was 156.27 ± 4.54 mL, the “α (distribution rate constant)” value ([2]; female Wistar rats) was 3.70 ± 1.56 h⁻¹ and the Cl ([2]; male Wistar rats) was 27.47 ± 1.81 mL/h. For the same compound, the Ka ([2]; male Wistar rats) was 0.69 ± 0.15 h⁻¹, the Vd ([2]; male Wistar rats) was 147.04 ± 9.43 mL and the “α (distribution rate constant)” value ([2]; male Wistar rats) was 5.79 ± 2.33 h⁻¹. The bioavailability ([2]; female Wistar rats) was 25.6 ± 0.4%, the bioavailability ([2]; male Wistar rats) was 27 ± 1.85% and the AUC(0-inf) ([2]; female Wistar rats) was 43900 ± 710 ng·h/mL. The Cmax ([2]; female Wistar rats) was 16500 ± 1050 ng/mL, the Tmax ([2]; female Wistar rats) was 30 min and the half-life ([2]; female Wistar rats) was 223 ± 6 min. The k el ([2]; female Wistar rats) was 5.28e-05 s⁻¹, the AUC(0-inf) ([2]; male Wistar rats) was 49300 ± 3380 ng·h/mL and the Cmax ([2]; male Wistar rats) was 19600 ± 1960 ng/mL. For the same compound, the Tmax ([2]; male Wistar rats) was 30 min, the half-life ([2]; male Wistar rats) was 223 ± 9.6 min and the k el ([2]; male Wistar rats) was 5.28e-05 s⁻¹. For the same compound, the solubility [3] was 2.7 ± 0.09 µg/mL (≈ 6.26 µM), the “selectivity index (COX-1/COX-2 inhibitory potency)” value (COX-2) was “improved selectivity index” and the “Forced tests results, Mean ±SD” value ([4]; Hydrolysis (Acid), fraction recovered intact) was 0.94±0.02. For the same compound, the “Forced tests results, Mean ±SD” value ([4]; Hydrolysis (Base)) was 0.92±0.01, the “Forced tests results, Mean ±SD” value ([4]; Hydrolysis (Buffer pH=7)) was 0.95±0.04 and the “Forced tests results, Mean ±SD” value ([4]; Oxidative stress (H2O2-3%)) was 0.94±0.02. The “Forced tests results, Mean ±SD” value ([4]; Oxidative stress (H2O2-30%)) was 0.90±0.04, the “Forced tests results, Mean ±SD” value ([4]; Photodegradation (Acid)) was 0.93±0.02 and the “Forced tests results, Mean ±SD” value ([4]; Photodegradation (Base)) was 0.96±0.04. For the same compound, the “Forced tests results, Mean ±SD” value ([4]; Photodegradation (Buffer pH=7)) was 0.93±0.02, the “Forced tests results, Mean ±SD” value ([4]; Thermal Degradation (solid phase)) was 0.95±0.03 and the recovered intact ([4]; in all of the examined stress conditions) was “more than 90%”. For the same compound, the “α (distribution rate constant)” value ([5]; female Wistar rats) was 3.87 ± 1.11 h⁻¹, the “α (distribution rate constant)” value ([5]; male Wistar rats) was 2.98 ± 0.67 h⁻¹ and the AUC(0-inf) ([5]; female Wistar rats) was 85800 ± 9230 ng·h/mL. It also gave a C0 ([5]; female Wistar rats) of 100 ± 14.1 µg/mL, a Vd ([5]; female Wistar rats) of 0.101 ± 0.0137 L and a clearance ([5]; female Wistar rats) of 0.491 mL/min. It also gave a half-life ([5]; female Wistar rats) of 143 ± 7.2 min, a k el ([5]; female Wistar rats) of 0.00015 s⁻¹ and an AUC(0-inf) ([5]; male Wistar rats) of 91300 ± 17100 ng·h/mL. It also gave a C0 ([5]; male Wistar rats) of 113 ± 7.99 µg/mL, a Vd ([5]; male Wistar rats) of 0.0997 ± 0.0152 L and a clearance ([5]; male Wistar rats) of 0.47 mL/min. The half-life ([5]; male Wistar rats) was 134 ± 44.4 min and the k el ([5]; male Wistar rats) was 8.06e-05 s⁻¹.
